Experimental data as given in patent US20230233585A1, “USE OF […] OR OF ITS SALT FOR THE TREATMENT OF OSTEOARTHROSIS” (ABIOGEN PHARMA S.P.A., priority 2014, published 2023).

Legend:
[1] = tested on: patients with acute painful knee osteoarthritis (OA); experiment: SF-36 questionnaire (functional status); type: in vivo; conditions: mean ± SD
Source text: (§1) The aim of this randomized, double-blind, placebo-controlled study was to assess the efficacy of intravenous neridronate in controlling pain in patients with acute painful knee osteoarthritis (OA).
(§2) From March 2013 to January 2014, 96 patients older than 50 years and with a recent onset of knee pain were screened. These patients came from the orthopedic and rheumatologic outpatients services and the emergency department of a tertiary care center devoted to bone and joint diseases. Sixty-eight patients were considered eligible to be recruited when they met the following inclusion criteria: 1) knee OA fulfilling the American College of Rheumatology diagnostic criteria; 2) a radiographic Kellgren-Lawrence grading score ≥2 in the tibiofemoral joint; 3) a continuous knee pain by at least 2 weeks with an onset no longer than three months; 4) a pain intensity greater than 30 mm on a Huskisson's visual analog scale ranging from 0 (no pain) to 100 mm (maximal pain); 5) a knee MR scan showing large (>1 cm according to international criteria) BMLs. […] At the time of recruitment, 58 patients out of 68 (85.3%) were taking or had taken drugs to control pain in the previous three months. The patients were asked not to take any analgesics or nonsteroidal anti-inflammatory drugs (NSAIDs) throughout the study period. All patients gave written consent. The study was approved by the Ethics Committee of the hospital where the study was carried out.
(§3) After enrolment, patients were randomized to receive placebo or sodium neridronate (Abiogen, Pisa, Italy) 100 mg/8 ml in vials with an identical appearance in a 1:1 ratio. Both sodium neridronate and placebo were diluted in 500 ml of saline isotonic solution and infused in the morning for over 2 hours. The treatment was administered every third day four times starting from day 1 (first infusion) and ending on day 10 (fourth infusion). Throughout the infusion course, serum calcium was assayed before each infusion. The values were adjusted for albumin value of 4.2 g/dL. After 60 days (57-66) from the first infusion, the last clinical assessment was performed. Two months after the end of the study, patients were interviewed by telephone about a possible relapse of pain and the possible resumption of analgesic drugs and/or NSAIDs.
(§4) Primary outcome of the study was the assessment and comparison of changes in pain intensity between the sodium neridronate group and the placebo group along the study. Pain in the affected knee was measured by VAS (0-100) at day 1 (T0), at the day of the last infusion (day 10; T1) and 50 days later (T2). […] As additional endpoint, changes in WORMS score before the treatment and at T2 have been measured.

[2] = tested on: patients with acute painful knee osteoarthritis (OA); experiment: Pain in the affected knee by VAS (0-100), randomized double-blind placebo-controlled study; type: in vivo; conditions: mean ± SD
Source text: as §1, §2, §3
Primary outcome of the study was the assessment and comparison of changes in pain intensity between the sodium neridronate group and the placebo group along the study. Pain in the affected knee was measured by VAS (0-100) at day 1 (T0), at the day of the last infusion (day 10; T1) and 50 days later (T2). As secondary endpoints, the following clinical assessments were performed: the Western Ontario and MacMaster Universities Osteoarthritis Index (WOMAC) pain questionnaire; the McGill Pain Questionnaire and the 36-Item Short Form Health Survey (SF-36) questionnaire to assess the patient's functional status. All these instruments were administered at T0 and T2. As additional endpoint, changes in WORMS score before the treatment and at T2 have been measured.

[3] = tested on: subchondral BMLs in patients with painful knee OA; experiment: Knee MRI, WORMS score for bone marrow edema; type: in vivo; conditions: mean ± SD
Method: as §3
High resolution, three-dimensional MRI of the target knee was obtained for each patient before the start of the treatment (1-7 days) and at the end of the study (day 58-69). All MR images were evaluated by a skilled musculoskeletal radiologist who was blinded to the patient's treatment. All MR examinations were performed with a 1.5 T scanner (Magnetom Espree, Siemens) using a dedicated knee coil. Imaging was performed on sagittal, coronal and transverse planes, with a field of view (FOV) of 18 cm and a matrix of acquisition of 256×256. The MR protocol included: spin echo (SE) T1-weighted sequences (repetition time TR 580 ms, echo time TE 12 ms, number of signal averages 2, thickness 3.0 mm, intersection gap 0.5 mm) on sagittal, coronal and transverse planes; SE T2-weighted sequences (TR 4.000 ms, TE 30/100 ms, one signal acquired, thickness 3.0 mm, intersection gap 0.5 mm) on sagittal and transverse planes; PD-weighted sequence with fat/suppression (TR 2800 ms, TE 40 ms, one signal acquired, thickness 3.0 mm, intersection gap 0.5 mm) on coronal plane. Subchondral BMLs were identified as areas of increase signal intensity on fat-suppressed T2-weighted images. Scores were assigned using the Whole-Organ MRI score for knee OA (WORMS) for bone marrow edema. […] For each subregion, the extent of the lesion was assessed following the WORMS scale: 0=absence of edema; 1=less than 25%; 2=25-50%; 3=>50%.
as §4

[4] = tested on: patients with acute painful knee osteoarthritis (OA); experiment: McGill Pain Questionnaire; type: in vivo; conditions: mean ± SD
Source text: as §1
(§5) From March 2013 to January 2014, 96 patients older than 50 years and with a recent onset of knee pain were screened. These patients came from the orthopedic and rheumatologic outpatients services and the emergency department of a tertiary care center devoted to bone and joint diseases. […]
as §4

[5] = tested on: patients with acute painful knee osteoarthritis (OA); experiment: WOMAC pain questionnaire; type: in vivo; conditions: mean ± SD
Source text: as §1, §5, §4

[6] = tested on: patients with acute painful knee osteoarthritis (OA); experiment: Telephone interview on resumption of analgesic drugs and/or NSAIDs; type: in vivo; conditions: two months after the last clinical evaluation; 4 patients out of 31
Method: as §3

[7] = tested on: patients with acute painful knee osteoarthritis (OA); experiment: Adverse events during the infusion course; type: in vivo; conditions: one patient, after the first infusion
Method: as §3
Fifty-six patients completed the study. […] Eight patients in the placebo group were excluded for the resumption of analgesic or NSAIDs treatment during the study (7 patients) and one patient refused to return to be evaluated 50 days after the treatment. […]

[8] = tested on: patients with osteoarthritis; conditions: dosages 5, 15, 35 and 50 mg; cited from earlier work
[9] = 50 days after the end of treatment (T2), N = 31

NCCCCCC(O)(P(=O)(O)O)P(=O)(O)O [sodium neridronate]
SF-36 mental component [1, 9]: 62.5 | SF-36 physical component [1, 9]: 51.1 | SF-36 mental component ([1]; baseline (T0), N = 34): 56.1 ± 12.4 | SF-36 physical component ([1]; baseline (T0), N = 34): 36.6 ± 10.2 | VAS score ([2]; 50 days after the end of treatment (T2), 100 mg i.v. x4, N = 31): 9.4±10.8 | VAS score ([2]; 50 days after the end of treatment (T2), 100 mg i.v. x4, N = 31, listed as Neridronate): 9.4 | VAS score ([2]; baseline (day 1, T0), before treatment, N = 34): 59.0±14.7 | VAS score ([2]; baseline (day 1, T0), before treatment, N = 34, listed as Neridronate): 59.0 ± 14.7 | VAS score ([2]; day of the last infusion (day 10, T1), 100 mg i.v. on days 1, 4, 7, 10): 30.4±15.6 | WORMS score ([3]; T2, MRI at the end of the study, N = 31): 3.7±4.2 | WORMS score ([3]; T2, MRI at the end of the study, N = 31, listed as Neridronate): 3.7 | WORMS score ([3]; baseline, MRI before the start of treatment, N = 34): 6.3±3.0 | WORMS score ([3]; baseline, MRI before the start of treatment, N = 34, listed as Neridronate): 6.3 ± 3.0 | McGill [4, 9]: 3.7 | McGill ([4]; baseline (T0), N = 34): 14.3 ± 7.6 | WOMAC [5, 9]: 58 | WOMAC ([5]; baseline (T0), N = 34): 232 ± 79 | patients who had resumed symptomatic therapy with analgesic drugs or NSAIDs [6]: 12.9% | adverse event leading to withdrawal of consent [7]: acute phase reaction

O=P(O)(O)C(O)(Cc1cccnc1)P(=O)(O)O [risedronate]
efficacy of treatment in pain symptoms versus placebo [8]: it was not possible to find any difference
